Earlier results, collected in paper PMC8838197, “Coumarin-Resveratrol-Inspired Hybrids as Monoamine Oxidase B Inhibitors: 3-Phenylcoumarin versus trans-6-Styrylcoumarin” (Molecules, 2022).
Where “and” joins values, the source holds several entries; their conditions need not be identical. Equal values may be shown once.

Columns and labels:
MAO-A = conditions: cited from earlier work; for pIC50 MAO-A: Table S8; for MAO-A pIC50: data set compounds
MAO-B = system: MAO-B; parameters: pIC50 MAO-B: unit not given here; conditions: cited from earlier work; for MAO-B pIC50: data set compounds

COc1cc(-c2cc3cc(C)cc(Br)c3oc2=O)cc(OC)c1OC [Compound 11]
pIC50 MAO-A (MAO-A): 4.506 | MAO-A pIC50 (MAO-A): < 5.0 | pIC50 MAO-B (MAO-B; Table S8): 5.311

Cc1ccc(-c2cc3cc(O)ccc3oc2=O)cc1 [Compound 14]
pIC50 MAO-A (MAO-A): 4.604 | pIC50 MAO-B (MAO-B; Table S8): 7.173

Cc1ccc2oc(=O)c(-c3cccc(O)c3)cc2c1 [Compound 23]
pIC50 MAO-A (MAO-A): 4.455 | pIC50 MAO-B (MAO-B; Table S8): 6.187

Cc1ccc2oc(=O)c(-c3ccccc3O)cc2c1 [Compound 24]
pIC50 MAO-A (MAO-A): 4.666 | pIC50 MAO-B (MAO-B; Table S8): 6.921 | MAO-B pIC50 (MAO-B): > 6.5 and < 6.5

COc1ccc(-c2cc3cccc(C)c3oc2=O)cc1 [Compound 37]
pIC50 MAO-A (MAO-A): 4.666 | MAO-A pIC50 (MAO-A): < 5.0 | pIC50 MAO-B (MAO-B; Table S8): 8.465

Cc1ccc(C(=O)Nc2cc3cc(C)ccc3oc2=O)cc1 [Compound 41]
pIC50 MAO-A (MAO-A): 4.337 | pIC50 MAO-B (MAO-B; Table S8): 6.77

COc1ccc(-c2cc3cc([N+](=O)[O-])ccc3oc2=O)cc1 [Compound 54]
pIC50 MAO-A (MAO-A): 5.932 | pIC50 MAO-B (MAO-B; Table S8): 8.523

COc1ccc(-c2cc3cccc(OC)c3oc2=O)cc1 [Compound 55]
MAO-A pIC50 (MAO-A): < 5.0

O=c1oc2ccc(O)cc2cc1-c1ccccc1 [Compound 63]
pIC50 MAO-A (MAO-A): 4.524 | pIC50 MAO-B (MAO-B; Table S8): 5.47

O=c1oc2ccc(O)cc2cc1-c1ccc(Br)cc1 [Compound 68]
pIC50 MAO-A (MAO-A): 4.892 | pIC50 MAO-B (MAO-B; Table S8): 7.495

O=c1oc2ccc(OC3CCCC3)cc2cc1-c1cccc(Br)c1 [Compound 72]
pIC50 MAO-A (MAO-A): 4.354 | MAO-A pIC50 (MAO-A): < 5.0 | pIC50 MAO-B (MAO-B; Table S8): 5.747

O=C(O)COc1ccc2oc(=O)c(-c3ccc(Br)cc3)cc2c1 [Compound 73]
pIC50 MAO-A (MAO-A): 4.898 | MAO-A pIC50 (MAO-A): < 5.0 | pIC50 MAO-B (MAO-B; Table S8): 8.154 | MAO-B pIC50 (MAO-B): > 6.5

O=c1oc2ccc3ccccc3c2cc1-c1ccc(O)cc1 [Compound 81]
pIC50 MAO-A (MAO-A): 4.626 | pIC50 MAO-B (MAO-B; Table S8): 6.337

O=c1oc2ccc3ccccc3c2cc1-c1cccc(O)c1 [Compound 82]
pIC50 MAO-A (MAO-A): 4.591 | Experimental pIC50 (MAO-A inhibitors) (MAO-A; Table S12): 4.354 | pIC50 MAO-B (MAO-B; Table S8): 5.296

Cc1ccc2oc(=O)c(-c3ccc([N+](=O)[O-])cc3)cc2c1 [Compound 88]
pIC50 MAO-A (MAO-A): 5.379 | pIC50 MAO-B (MAO-B; Table S8): 8.678

Cc1cccc(NC(=O)c2cc3cc(C)ccc3oc2=O)c1 [Compound 99]
pIC50 MAO-B (MAO-B; Table S8): 8.124

Cc1ccc(NC(=O)c2cc3cc(C)ccc3oc2=O)cc1 [Compound 100]
pIC50 MAO-B (MAO-B; Table S8): 7.857

COc1ccccc1NC(=O)c1cc2cc(C)ccc2oc1=O [Compound 101]
pIC50 MAO-B (MAO-B; Table S8): 6.794

COc1cccc(NC(=O)c2cc3cc(C)ccc3oc2=O)c1 [Compound 102]
pIC50 MAO-B (MAO-B; Table S8): 7.996

COc1ccc(NC(=O)c2cc3cc(C)ccc3oc2=O)cc1 [Compound 103]
pIC50 MAO-B (MAO-B; Table S8): 6.527

Cc1ccc2oc(=O)c(C(=O)Nc3ccccc3Br)cc2c1 [Compound 104]
pIC50 MAO-B (MAO-B; Table S8): 7.87

Cc1ccc2oc(=O)c(C(=O)Nc3cccc(Br)c3)cc2c1 [Compound 105]
pIC50 MAO-B (MAO-B; Table S8): 8.332

Cc1ccc2oc(=O)c(C(=O)Nc3ccc(Br)cc3)cc2c1 [Compound 106]
pIC50 MAO-B (MAO-B; Table S8): 7.943 | MAO-B pIC50 (MAO-B): > 6.5

Cc1ccc2oc(=O)c(C(=O)Nc3ccccc3O)cc2c1 [Compound 107]
pIC50 MAO-B (MAO-B; Table S8): 7.738

Cc1ccc2oc(=O)c(C(=O)Nc3cccc(O)c3)cc2c1 [Compound 108]
pIC50 MAO-B (MAO-B; Table S8): 7.343

Cc1ccc2oc(=O)c(C(=O)Nc3ccc(O)cc3)cc2c1 [Compound 109]
pIC50 MAO-B (MAO-B; Table S8): 6.206 | MAO-B pIC50 (MAO-B): < 6.5

Cc1ccc2oc(=O)c(C(=O)Nc3ccccc3)cc2c1 [Compound 110]
pIC50 MAO-B (MAO-B; Table S8): 7.815

Cc1cccc(NC(=O)c2cc3cc(C)ccc3oc2=O)c1 [Compound 111]
pIC50 MAO-B (MAO-B; Table S8): 8.124

Cc1ccc2oc(=O)c(C(=O)Nc3cccc(Cl)c3)cc2c1 [Compound 112]
pIC50 MAO-B (MAO-B; Table S8): 8.295

Cc1ccc2oc(=O)c(C(=O)Nc3cccc(O)c3)cc2c1 [Compound 113]
pIC50 MAO-B (MAO-B; Table S8): 7.343

Cc1ccc2oc(=O)c(C(=O)Nc3ccc(Cl)cc3)cc2c1 [Compound 114]
pIC50 MAO-B (MAO-B; Table S8): 7.955 | MAO-B pIC50 (MAO-B): > 6.5

Cc1ccc2oc(=O)c(C(=O)Nc3ccc(O)cc3)cc2c1 [Compound 115]
pIC50 MAO-B (MAO-B; Table S8): 6.206 | MAO-B pIC50 (MAO-B): < 6.5

COc1ccc2oc(=O)c(C(=O)Nc3ccccc3)cc2c1 [Compound 116]
pIC50 MAO-B (MAO-B; Table S8): 8.225

COc1ccc2oc(=O)c(C(=O)Nc3cccc(C)c3)cc2c1 [Compound 117]
pIC50 MAO-B (MAO-B; Table S8): 7.326

COc1ccc2oc(=O)c(C(=O)Nc3cccc(Cl)c3)cc2c1 [Compound 118]
pIC50 MAO-B (MAO-B; Table S8): 8.044

COc1ccc2oc(=O)c(C(=O)Nc3cccc(O)c3)cc2c1 [Compound 119]
pIC50 MAO-B (MAO-B; Table S8): 6.641

COc1ccc2oc(=O)c(C(=O)Nc3ccc(C)cc3)cc2c1 [Compound 120]
pIC50 MAO-B (MAO-B; Table S8): 7.712

COc1ccc2oc(=O)c(C(=O)Nc3ccc(Cl)cc3)cc2c1 [Compound 121]
pIC50 MAO-B (MAO-B; Table S8): 7.724 | MAO-B pIC50 (MAO-B): > 6.5

Cc1ccc2occ(C(=O)Nc3ccccc3)c(=O)c2c1 [Compound 122]
pIC50 MAO-B (MAO-B; Table S8): 7.671

Cc1cccc(NC(=O)c2coc3ccc(C)cc3c2=O)c1 [Compound 123]
pIC50 MAO-B (MAO-B; Table S8): 7.767

Cc1ccc2occ(C(=O)Nc3cccc(Cl)c3)c(=O)c2c1 [Compound 124]
pIC50 MAO-B (MAO-B; Table S8): 8.377

Cc1ccc2occ(C(=O)Nc3cccc(O)c3)c(=O)c2c1 [Compound 125]
pIC50 MAO-B (MAO-B; Table S8): 7.107

Cc1ccc(NC(=O)c2coc3ccc(C)cc3c2=O)cc1 [Compound 126]
pIC50 MAO-B (MAO-B; Table S8): 6.819

Cc1ccc2occ(C(=O)Nc3ccc(Cl)cc3)c(=O)c2c1 [Compound 127]
pIC50 MAO-B (MAO-B; Table S8): 7.343 | MAO-B pIC50 (MAO-B): > 6.5

Cc1ccc2occ(C(=O)Nc3ccc(O)cc3)c(=O)c2c1 [Compound 128]
pIC50 MAO-B (MAO-B; Table S8): 6.29 | MAO-B pIC50 (MAO-B): < 6.5

COc1ccc2occ(C(=O)Nc3ccccc3)c(=O)c2c1 [Compound 129]
pIC50 MAO-B (MAO-B; Table S8): 7.379

COc1ccc2occ(C(=O)Nc3cccc(C)c3)c(=O)c2c1 [Compound 130]
pIC50 MAO-B (MAO-B; Table S8): 7.662

COc1ccc2occ(C(=O)Nc3cccc(Cl)c3)c(=O)c2c1 [Compound 131]
pIC50 MAO-B (MAO-B; Table S8): 8.405

COc1ccc2occ(C(=O)Nc3cccc(O)c3)c(=O)c2c1 [Compound 132]
pIC50 MAO-B (MAO-B; Table S8): 6.945

COc1ccc2occ(C(=O)Nc3ccc(C)cc3)c(=O)c2c1 [Compound 133]
pIC50 MAO-B (MAO-B; Table S8): 6.676

COc1ccc2occ(C(=O)Nc3ccc(Cl)cc3)c(=O)c2c1 [Compound 134]
pIC50 MAO-B (MAO-B; Table S8): 7.987 | MAO-B pIC50 (MAO-B): > 6.5

COc1ccc2occ(C(=O)Nc3ccc(O)cc3)c(=O)c2c1 [Compound 135]
pIC50 MAO-B (MAO-B; Table S8): 6.171 | MAO-B pIC50 (MAO-B): < 6.5

Cc1ccc2oc(=O)c(-c3ccc(O)c(O)c3)cc2c1 [Compound 136]
pIC50 MAO-B (MAO-B; Table S8): 5.328

COc1cc(OC)cc(-c2cc3cccc(C)c3oc2=O)c1 [Compound 137]
pIC50 MAO-B (MAO-B; Table S8): 8.187 | MAO-B pIC50 (MAO-B): > 6.5

COc1cc(OC)c(-c2cc3cc(C)ccc3oc2=O)cc1Br [Compound 140]
pIC50 MAO-B (MAO-B; Table S8): 6.879 | MAO-B pIC50 (MAO-B): > 6.5

COc1cccc2cc(-c3cccc(C)c3)c(=O)oc12 [Compound 141]
pIC50 MAO-B (MAO-B; Table S8): 7.092 | MAO-B pIC50 (MAO-B): > 6.5

O=c1oc2c(O)cccc2cc1-c1ccsc1 [Compound 142]
pIC50 MAO-A (MAO-A): 4.754

O=c1oc2cc(O)ccc2cc1-c1ccsc1 [Compound 143]
pIC50 MAO-A (MAO-A): 5.118 | pIC50 MAO-B (MAO-B; Table S8): 5.071

O=c1oc2c(O)c(O)ccc2cc1-c1ccsc1 [Compound 144]
pIC50 MAO-A (MAO-A): 5.879 | pIC50 MAO-B (MAO-B; Table S8): 5.323

O=c1oc2c(O)cccc2cc1-c1cc(Br)cs1 [Compound 145]
pIC50 MAO-A (MAO-A): 5.207

O=c1oc2cc(O)ccc2cc1-c1cc(Br)cs1 [Compound 146]
pIC50 MAO-A (MAO-A): 5.038 | pIC50 MAO-B (MAO-B; Table S8): 6.854

O=c1oc2c(O)c(O)ccc2cc1-c1cc(Br)cs1 [Compound 147]
pIC50 MAO-A (MAO-A): 5.216 | pIC50 MAO-B (MAO-B; Table S8): 4.663

C#CCNc1cc2ccccc2oc1=O [Compound 148]
pIC50 MAO-B (MAO-B; Table S8): 6.022

CC#CCNc1cc2ccccc2oc1=O [Compound 149]
pIC50 MAO-B (MAO-B; Table S8): 4.922

CCC#CCNc1cc2ccccc2oc1=O [Compound 150]
pIC50 MAO-B (MAO-B; Table S8): 5.963

CCC#CCNc1ccc2c(C)cc(=O)oc2c1 [Compound 151]
pIC50 MAO-B (MAO-B; Table S8): 5.401

CCC#CCNc1ccc2c(C(F)(F)F)cc(=O)oc2c1 [Compound 152]
pIC50 MAO-B (MAO-B; Table S8): 5.094

CC(=O)Nc1ccc2c(C)cc(=O)oc2c1 [Compound 153]
pIC50 MAO-A (MAO-A): 4.59

CCC(=O)Nc1ccc2c(C)cc(=O)oc2c1 [Compound 154]
pIC50 MAO-A (MAO-A): 4.015

Cc1cc(=O)oc2cc(NC(=O)C(C)C)ccc12 [Compound 155]
pIC50 MAO-A (MAO-A): 4.611 | pIC50 MAO-B (MAO-B; Table S8): 4.937

Cc1cc(=O)oc2cc(NC(=O)CC(C)C)ccc12 [Compound 156]
pIC50 MAO-A (MAO-A): 4.339 | pIC50 MAO-B (MAO-B; Table S8): 6.357

Cc1cc(=O)oc2cc(NC(=O)CC(C)(C)C)ccc12 [Compound 157]
pIC50 MAO-B (MAO-B; Table S8): 6.602

Cc1cc(=O)oc2cc(NC(=O)CBr)ccc12 [Compound 158]
pIC50 MAO-A (MAO-A): 4.107 | MAO-A pIC50 (MAO-A): < 5.0 | IC50 MAO-B (MAO-B; Table S8): In | pIC50 MAO-B (MAO-B; Table S8): In

Cc1cc(=O)oc2cc(NC(=O)c3ccccc3)ccc12 [Compound 159]
pIC50 MAO-B (MAO-B; Table S8): 6.444

Cc1ccc(C(=O)Nc2ccc3c(C)cc(=O)oc3c2)cc1 [Compound 160]
pIC50 MAO-B (MAO-B; Table S8): 6.046

Cc1cc(=O)oc2cc(NC(=O)c3ccc(Cl)cc3)ccc12 [Compound 161]
pIC50 MAO-B (MAO-B; Table S8): 6.509

Cc1cc(=O)oc2cc(NC(=O)c3cccs3)ccc12 [Compound 162]
pIC50 MAO-B (MAO-B; Table S8): 5.799

Cc1cc(=O)oc2cc(NC(=O)c3ccco3)ccc12 [Compound 163]
pIC50 MAO-A (MAO-A): 4.521 | MAO-A pIC50 (MAO-A): < 5.0 | pIC50 MAO-B (MAO-B; Table S8): 5.3
